Test results taken from ChEMBL document CHEMBL3044624, “Cycloate, an inhibitor of fatty acid elongase, modulates the metabolism of very-long-side-chain alkylresorcinols in rye seedlings” (Pest Manag Sci, 2009).

How the values were obtained:
[1] = tested on: Secale cereale; test: Toxicity against etiolated Secale cereale (rye) seedlings assessed as fresh biomass of seedling grown at 22 +/-2 degC at 46 uM measured at 5 days after compound-treated seed germination (reference value: 21.43 +/-0.35 g); type: organism-based; conditions: in vivo, 120 h
[2] = tested on: Secale cereale; test: Toxicity against etiolated Secale cereale (rye) seedlings assessed as dry biomass of seedling grown at 15 +/-2 degC at 46 uM measured at 5 days after compound-treated seed germination (reference value: 1.14 +/-0.01 g); type: organism-based; conditions: in vivo, 120 h
[3] = tested on: Secale cereale; test: Change in alkylresorcinol homologue composition in dry shoots of etiolated Secale cereale (rye) seedlings grown from compound-treated seeds at 15 +/-2 degC assessed as C21:1 content at 46 uM by GC/EI-MS analysis (reference value: 0.34 mg/kg dry weight); type: functional
[4] = tested on: Secale cereale; test: Change in alkylresorcinol homologue composition in dry shoots of green Secale cereale (rye) seedlings grown from compound-treated seeds at 15 +/-2 degC assessed as C17:0 content at 46 uM by GC/EI-MS analysis (reference value: 1.46 mg/kg dry weight); type: functional
[5] = tested on: Secale cereale; test: Change in alkylresorcinol homologue composition in dry shoots of green Secale cereale (rye) seedlings grown from compound-treated seeds at 15 +/-2 degC assessed as C19:0 content at 46 uM by GC/EI-MS analysis (reference value: 0.99 mg/kg dry weight); type: functional
[6] = tested on: Secale cereale; test: Change in alkylresorcinol homologue composition in dry shoots of green Secale cereale (rye) seedlings grown from compound-treated seeds at 29 +/-2 degC assessed as C21:1 content at 46 uM by GC/EI-MS analysis (reference value: 0.04 mg/kg dry weight); type: functional
[7] = tested on: Secale cereale; test: Change in alkylresorcinol content in dry shoots of etiolated Secale cereale (rye) seedlings grown from compound-treated seeds at 29 +/-2 degC at 46 uM by thin layer chromatography (reference value: 3.03 +/-0.02 mg/kg dry weight); type: functional
[8] = tested on: Secale cereale; test: Change in alkylresorcinol homologue composition in dry shoots of green Secale cereale (rye) seedlings grown from compound-treated seeds at 22 +/-2 degC assessed as C23:0 content at 46 uM by GC/EI-MS analysis (reference value: 0.54 mg/kg dry weight); type: functional
[9] = tested on: Secale cereale; test: Change in alkylresorcinol content in dry shoots of green Secale cereale (rye) seedlings grown from compound-treated seeds at 15 +/-2 degC at 46 uM by thin layer chromatography (reference value: 4.15 +/-0.02 mg/kg dry weight); type: functional
[10] = tested on: Secale cereale; test: Change in alkylresorcinol homologue composition in dry shoots of etiolated Secale cereale (rye) seedlings grown from compound-treated seeds at 22 +/-2 degC assessed as C23:1 content at 46 uM by GC/EI-MS analysis (reference value: 0.04 mg/kg dry weight); type: functional
[11] = tested on: Secale cereale; test: Change in alkylresorcinol homologue composition in dry shoots of green Secale cereale (rye) seedlings grown from compound-treated seeds at 29 +/-2 degC assessed as C17:0 content at 46 uM by GC/EI-MS analysis (reference value: 0.75 mg/kg dry weight); type: functional
[12] = tested on: Secale cereale; test: Change in alkylresorcinol homologue composition in dry shoots of etiolated Secale cereale (rye) seedlings grown from compound-treated seeds at 15 +/-2 degC assessed as C21:0 content at 46 uM by GC/EI-MS analysis (reference value: 0.78 mg/kg dry weight); type: functional
[13] = tested on: Secale cereale; test: Change in alkylresorcinol content in dry shoots of green Secale cereale (rye) seedlings grown from compound-treated seeds at 22 +/-2 degC at 46 uM by thin layer chromatography (reference value: 3.13 +/-0.07 mg/kg dry weight); type: functional
[14] = tested on: Secale cereale; test: Change in alkylresorcinol homologue composition in dry shoots of etiolated Secale cereale (rye) seedlings grown from compound-treated seeds at 29 +/-2 degC assessed as C21:0 content at 46 uM by GC/EI-MS analysis (reference value: 0.96 mg/kg dry weight); type: functional
[15] = tested on: Secale cereale; test: Toxicity against green Secale cereale (rye) seedlings assessed as fresh biomass of seedling grown at 22 +/-2 degC at 46 uM measured at 5 days after compound-treated seed germination (reference value: 20.76 +/-0.81 g); type: organism-based; conditions: in vivo, 120 h
[16] = tested on: Secale cereale; test: Change in alkylresorcinol homologue composition in dry shoots of green Secale cereale (rye) seedlings grown from compound-treated seeds at 29 +/-2 degC assessed as C19:1 content at 46 uM by GC/EI-MS analysis (Rvb =0.17 mg/kg dry weight); type: functional
[17] = tested on: Secale cereale; test: Toxicity against green Secale cereale (rye) seedlings assessed as fresh biomass of seedling grown at 15 +/-2 degC at 46 uM measured at 5 days after compound-treated seed germination (reference value: 10.70 +/-0.28 g); type: organism-based; conditions: in vivo, 120 h
[18] = tested on: Secale cereale; test: Change in alkylresorcinol homologue composition in dry shoots of etiolated Secale cereale (rye) seedlings grown from compound-treated seeds at 15 +/-2 degC assessed as C17:0 content at 46 uM by GC/EI-MS analysis (reference value: 3.25 mg/kg dry weight); type: functional
[19] = tested on: Secale cereale; test: Change in alkylresorcinol homologue composition in dry shoots of etiolated Secale cereale (rye) seedlings grown from compound-treated seeds at 29 +/-2 degC assessed as C15:0 content at 46 uM by GC/EI-MS analysis (reference value: 0.09 mg/kg dry weight); type: functional
[20] = tested on: Secale cereale; test: Change in alkylresorcinol homologue composition in dry shoots of green Secale cereale (rye) seedlings grown from compound-treated seeds at 15 +/-2 degC assessed as C21:0 content at 46 uM by GC/EI-MS analysis (reference value: 0.41 mg/kg dry weight); type: functional
[21] = tested on: Secale cereale; test: Toxicity against etiolated Secale cereale (rye) seedlings assessed as fresh biomass of seedling grown at 15 +/-2 degC at 46 uM measured at 5 days after compound-treated seed germination (reference value: 7.63 +/-0.12 g); type: organism-based; conditions: in vivo, 120 h
[22] = tested on: Secale cereale; test: Change in alkylresorcinol homologue composition in dry shoots of green Secale cereale (rye) seedlings grown from compound-treated seeds at 29 +/-2 degC assessed as C19:0 content at 46 uM by GC/EI-MS analysis (reference value: 0.48 mg/kg dry weight); type: functional
[23] = tested on: Secale cereale; test: Change in alkylresorcinol homologue composition in dry shoots of etiolated Secale cereale (rye) seedlings grown from compound-treated seeds at 15 +/-2 degC assessed as C23:0 content at 46 uM by GC/EI-MS analysis (reference value: 0.33 mg/kg dry weight); type: functional
[24] = tested on: Secale cereale; test: Change in alkylresorcinol homologue composition in dry shoots of etiolated Secale cereale (rye) seedlings grown from compound-treated seeds at 15 +/-2 degC assessed as C17:1 content at 46 uM by GC/EI-MS analysis (reference value: 0.51 mg/kg dry weight); type: functional
[25] = tested on: Secale cereale; test: Change in alkylresorcinol homologue composition in dry shoots of etiolated Secale cereale (rye) seedlings grown from compound-treated seeds at 29 +/-2 degC assessed as C21:1 content at 46 uM by GC/EI-MS analysis (reference value: 0.04 mg/kg dry weight); type: functional
[26] = tested on: Secale cereale; test: Change in alkylresorcinol homologue composition in dry shoots of green Secale cereale (rye) seedlings grown from compound-treated seeds at 22 +/-2 degC assessed as C25:0 content at 46 uM by GC/EI-MS analysis (reference value: 0.11 mg/kg dry weight); type: functional

SMILES: CCSC(=O)N(CC)C1CCCCC1 [CYCLOATE]
- Activity [1]: 6.92 g
- Activity [2]: 0.92 g
- Activity [3]: 0.43 mg/kg
- Activity [4]: 2.75 mg/kg
- Activity [5]: 1.45 mg/kg
- Activity [6]: 0.38 mg/kg
- Activity [7]: 14.34 mg/kg
- Activity [8]: 0.13 mg/kg
- Activity [9]: 6.67 mg/kg
- Activity [10]: 0.03 mg/kg
- Activity [11]: 5.42 mg/kg
- Activity [12]: 0.69 mg/kg
- Activity [13]: 3.17 mg/kg
- Activity [14]: 1.2 mg/kg
- Activity [15]: 10.63 g
- Activity [16]: 1.09 mg/kg
- Activity [17]: 4.73 g
- Activity [18]: 5.74 mg/kg
- Activity [19]: 0.72 mg/kg
- Activity [20]: 0.55 mg/kg
- Activity [21]: 4.41 g
- Activity [22]: 3.88 mg/kg
- Activity [23]: 0.17 mg/kg
- Activity [24]: 1.25 mg/kg
- Activity [25]: 0.33 mg/kg
- Activity [26]: 0.07 mg/kg
